Assay results: patent publication EP0682022B1, “Condensation products of melamine, benzotriazoles and aldehydes” (Ciba Specialty Chemicals Holding Inc., priority 1994, dated 1995)
Converted amounts (≈) assume the structure as drawn.

Assay: Solubility in water
Type: physicochemical
Conditions: at room temperature, read-out: Löslichkeit in Wasser

solubility: 50 mg/mL (≈ 99.7 mM)
Compound: O=C(O)C(Nc1nc(NC(C(=O)O)n2cncn2)nc(NC(C(=O)O)n2cncn2)n1)n1cncn1 (stereo not shown) [Beispiel 25]
